Two molecules from patent publication US20250213478A1, “CATIONIC LIPID HAVING DISULFIDE BOND, LIPID MEMBRANE STRUCTURE INCLUDING SAME, NUCLEIC ACID INTRODUCTION AGENT AND PHARMACEUTICAL COMPOSITION CONTAINING ANY ONE OF SAME, METHOD FOR INTRODUCING NUCLEIC ACID INTO CELL OR TARGET CELL, AND METHOD FOR PRODUCING CELLULAR PHARMACEUTICAL” (NOF Corporation, priority 2022, published 2025) can be followed below.

Series [1] can be described thus: Measurement of Liposomal pKa of LNP (TNS fluorescence). It is filed as physicochemical. As to conditions: LNP without nucleic acid, cationic lipid:DOPC:Chol=52.5:7.5:40 + about 1.5 mol DMG-PEG2k; pH at which relative TNS fluorescence intensity was 50%. The gist of the method: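 Nucleic-acid-free LNPs (cationic lipid:DOPC:Chol 52.5:7.5:40, ~1.5 mol DMG-PEG2k) prepared by microfluidic mixing, diluted to 0.5 mM lipid, mixed with TNS in 150 mM NaCl buffers spanning pH 3.0–10.0. Fluorescence at ex 321/em 447 nm normalised 0–100% per LNP; pKa is the pH at 50%.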

Series [2] in a line: Particle size, PdI and zeta potential of mRNA-encapsulating LNPs (dynamic light scattering). The series is classed as physicochemical. Particulars: mRNA-encapsulating LNP, cationic lipid:DOPC:Chol=55:5:40 + about 1 mol DMG-PEG2k; for PdI / particle size: dynamic light scattering; for zeta potential: physiological pH. The gist of the method:
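LNPs were made from cationic lipid:DOPC:Chol at 55:5:40 molar ratio plus about 1 mol DMG-PEG2k, microfluidically mixed with mRNA in malate buffer (20 mM, pH 3.0, 30 mM NaCl). They were ultrafiltered into PBS at 2 mM lipid. Size, PdI and zeta potential were measured by dynamic light scattering.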

The test system of another series is HeLa cells. Nature of the series: Evaluation of in vitro gene expression in HeLa cell (luciferase mRNA-encapsulating LNP). As to conditions: for cumulative luciferase luminescence intensity over 24 hr: luciferase mRNA 0.4 μg per dish, LNP cationic lipid:DOPC:Chol:DMG-PEG2k=55:5:40:1; for gene expression activity compared to Comparative Example: result in words. The series is classed as cell-based, human. The gist of the method:
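LNP (cationic lipid:DOPC:Chol:DMG-PEG2k=55:5:40:1) carrying luciferase mRNA, 0.4 μg mRNA per 3.5 cm dish, added to HeLa cells in D-MEM with 0.1 mM D-luciferin. Luminescence read 2 min every hour in an incubator luminometer; value is cumulative luminescence over 24 hr.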

Another series concerns BALB/c mouse. Nature of the series: Evaluation of in vivo gene expression (luciferase mRNA-encapsulating LNP, IVIS of isolated organs). Particulars: for relative value based on Comparative Example (amount of luminescence in spleen): relative to O-Ph-P4C2 LNP = 1.00; for amount of luminescence in each organ: heart / amount of luminescence in each organ: kidney / amount of luminescence in each organ: liver / amount of luminescence in each organ: lung / amount of luminescence in each organ: spleen: tail vein, mRNA 0.05 mg/kg, 4.5 hr + 15 min after administration; for amount of luminescence in each organ: spleen: spleen (Table 7). The gist of the method:
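Luciferase mRNA in LNP (cationic lipid:DOPC:Chol:DMG-PEG2k = 55:5:40:1 molar) given by tail vein to male 5-week-old BALB/c mice at 0.05 mg mRNA/kg. At 4.5 hr, D-luciferin (3 mg/mouse) was given intraperitoneally; 15 min later liver, spleen, kidney, heart and lung were excised and luminescence (photons/sec) quantified by IVIS imaging.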

Usually pKa stands for the pH at which an ionisable group is half protonated. As for `CCCCC/C=C\C/C=C\CCCCCCCC(=O)OCC(C)(COC(=O)CCCCCCC/C=C\C/C=C\CCCCC)C(=O)Oc1ccc(CC(=O)OCCSSCCOC(=O)NCCN(CC)CC)cc1` [Example 35], in series [1], the pKa came out at 6.8. In series [2], the PdI is listed as 0.068, the particle size is given as 70 nm and the zeta potential is listed as −4.0 mV. In the series with HeLa cells, the “cumulative luciferase luminescence intensity over 24 hr” value was found to be 6.34E+07 RLU and the “gene expression activity compared to Comparative Example” value is recorded as “superior gene expression activity”. For the same molecule, in the series on BALB/c mouse, the “relative value based on Comparative Example (amount of luminescence in spleen)” value is given as 0.37, the “amount of luminescence in each organ: heart” value came out at 6.31E+05 photons/sec, the “amount of luminescence in each organ: kidney” value is reported as 3.94E+05 photons/sec and the “amount of luminescence in each organ: liver” value worked out at 1.35E+07 photons/sec. In the series with BALB/c mouse, the “amount of luminescence in each organ: lung” value is on record as 4.65E+05 photons/sec and the “amount of luminescence in each organ: spleen” value is reported as 4.03E+06 photons/sec.

Consider `CCCCCCCC/C=C\CCCCCCCC(=O)OCC(C)(COC(=O)CCCCCCC/C=C\CCCCCCCC)C(=O)Oc1ccc(CC(=O)OCCSSCCOC(=O)NCCN(C)CCO)cc1` [Example 36], for which, in series [1], the pKa stood at 7.3. Also, in series [2], the PdI is recorded as 0.090, the particle size came out at 92 nm and the zeta potential is recorded as −2.5 mV. Further, in the series with HeLa cells, the “cumulative luciferase luminescence intensity over 24 hr” value is 7.66E+07 RLU and the “gene expression activity compared to Comparative Example” value is on record as “superior gene expression activity”. In the series on BALB/c mouse, the “relative value based on Comparative Example (amount of luminescence in spleen)” value came out at 0.19, the “amount of luminescence in each organ: heart” value is 9.67E+05 photons/sec, the “amount of luminescence in each organ: kidney” value was found to be 6.33E+05 photons/sec and the “amount of luminescence in each organ: liver” value stood at 2.33E+06 photons/sec. Besides, in the series with BALB/c mouse, the “amount of luminescence in each organ: lung” value was 8.67E+05 photons/sec and the “amount of luminescence in each organ: spleen” value amounted to 2.00E+06 photons/sec.
